Measurements reported in article PMC6443996, “1‐Hydroxy‐xanthine derivatives inhibit the human Caf1 nuclease and Caf1‐containing nuclease complexes via Mg^2+‐dependent binding” (FEBS Open Bio, 2019).

Assays:
Test in all cases: chemiluminescence-based AMP detection (AMP-Glo) deadenylase assay
Type in all cases: biochemical
[1] = target: T1, trimeric human nuclease module (BTG2-Caf1/CNOT7-Ccr4/CNOT6L) (Homo sapiens, UniProt Q9UIV1); settings: read-out: IC50 (μM) vs trimeric Caf1-complex ^c
T1 construct: trimeric complex co-expressed from pQE80L-BTG2 and pACYC-Duet1-Strep-CNOT6L-CNOT7 in E. coli; with CCR4-NOT transcription complex subunit 6-like; Protein BTG2

[2] = target: T2, human Caf1/CNOT7 (Homo sapiens, UniProt Q9UIV1); settings: read-out: IC50 (μM) vs Caf1 ^b
T2 construct: isolated recombinant wild-type Caf1 subunit, expressed and purified from Escherichia coli BL21(DE3)
Excerpt: chemiluminescence-based AMP detection (AMP-Glo) deadenylase assay on human Caf1/CNOT7

[3] = target: T3, human pentameric central module (BTG2-Caf1/CNOT7-Ccr4/CNOT6L-CNOT1-CNOT9) of Ccr4-Not (Homo sapiens, UniProt Q9UIV1); settings: read-out: IC50 (μM) vs pentameric Caf1-complex ^d
T3 construct: pentamer reconstituted from separately purified nuclease module and CNOT1 (MIF4G and DUF3819 domains, 1093-1595)-CNOT9 (ARM domain, 33-283) dimer; E. coli; with CCR4-NOT transcription complex subunit 6-like; Protein BTG2; CCR4-NOT transcription complex subunit 1; CCR4-NOT transcription complex subunit 9
T3 sequence (Q9UIV1 whole entry, other chains not shown, the tested form may be a part): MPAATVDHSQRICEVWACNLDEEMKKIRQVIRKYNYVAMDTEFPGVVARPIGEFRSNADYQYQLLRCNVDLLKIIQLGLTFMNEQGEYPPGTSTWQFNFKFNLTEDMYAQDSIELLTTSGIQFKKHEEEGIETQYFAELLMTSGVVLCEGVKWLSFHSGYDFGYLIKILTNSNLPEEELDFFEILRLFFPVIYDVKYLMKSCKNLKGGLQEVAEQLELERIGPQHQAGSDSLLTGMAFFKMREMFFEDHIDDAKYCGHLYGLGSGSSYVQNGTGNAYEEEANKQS
T3 sequence (P78543 whole entry partner, other chains not shown, the tested form may be a part): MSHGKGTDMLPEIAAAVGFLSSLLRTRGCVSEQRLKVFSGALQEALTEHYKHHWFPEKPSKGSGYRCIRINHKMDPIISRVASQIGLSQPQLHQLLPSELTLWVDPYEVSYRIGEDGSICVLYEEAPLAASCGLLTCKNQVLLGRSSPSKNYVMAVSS
T3 sequence (A5YKK6 1093-1595 partner, other chains not shown): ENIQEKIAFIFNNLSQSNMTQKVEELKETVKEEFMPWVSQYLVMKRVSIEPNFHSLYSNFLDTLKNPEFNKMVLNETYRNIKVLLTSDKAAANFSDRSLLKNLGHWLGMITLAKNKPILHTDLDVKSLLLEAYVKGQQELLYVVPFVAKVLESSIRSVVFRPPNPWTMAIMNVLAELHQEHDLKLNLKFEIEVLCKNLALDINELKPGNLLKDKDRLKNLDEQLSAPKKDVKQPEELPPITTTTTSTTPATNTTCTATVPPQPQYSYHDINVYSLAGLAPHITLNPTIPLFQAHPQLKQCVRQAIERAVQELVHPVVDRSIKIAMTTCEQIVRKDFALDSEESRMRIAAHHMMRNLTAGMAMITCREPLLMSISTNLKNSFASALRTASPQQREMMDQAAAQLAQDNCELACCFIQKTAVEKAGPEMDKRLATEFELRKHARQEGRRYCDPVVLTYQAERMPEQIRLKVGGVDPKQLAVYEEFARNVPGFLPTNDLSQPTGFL
T3 sequence (Q92600 33-283 partner, other chains not shown): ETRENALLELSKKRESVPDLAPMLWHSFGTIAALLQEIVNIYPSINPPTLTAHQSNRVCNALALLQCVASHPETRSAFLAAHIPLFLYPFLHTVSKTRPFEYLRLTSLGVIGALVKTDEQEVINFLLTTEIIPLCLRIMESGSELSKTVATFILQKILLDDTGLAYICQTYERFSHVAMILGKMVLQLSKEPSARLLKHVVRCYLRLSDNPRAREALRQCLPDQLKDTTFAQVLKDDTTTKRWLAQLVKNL

T2 sequence (Q9UIV1 whole entry): as the sequence (Q9UIV1 whole entry, other chains not shown, the tested form may be a part) above
T1 sequence (Q9UIV1 whole entry, other chains not shown): as the sequence (Q9UIV1 whole entry, other chains not shown, the tested form may be a part) above
T1 sequence (P78543 whole entry partner, other chains not shown): as the sequence (P78543 whole entry partner, other chains not shown, the tested form may be a part) above

Row | IC50 [1] [µM] | IC50 [2] [µM] | IC50 [3] [µM] | SMILES
1 | 13.6 ± 0.6 | 12.7 ± 0.9 | 10.8 ± 0.2 | O=c1[nH]c2ncn(Cc3ccccc3)c2c(=O)n1O [compound 1, 1-hydroxy-xanthine compound 1]
2 | 1 ± 0.2 | 0.79 ± 0.09 | 0.98 ± 0.07 | CN(C)CCCn1c(=O)n(O)c(=O)c2c1ncn2CCc1ccccc1 [compound 5, 1-hydroxy-xanthine compound 5]
